We go through 9 compounds from US20170081338A1, “SUBSTITUTED HETEROARYL COMPOUNDS AND METHODS OF USE” (Sunshine Lake Pharma Co., Ltd., priority 2015, published 2017).

SMILES strings stand for the structures.

A short description of series [1]: Compound stability in human liver microsomes. It counts as in vitro ADME. The settings on record: pH 7.4; for half-life at 5 μM: human liver microsomes 0.5 mg protein/mL, compound 5 μM, NADPH, 37° C., read-out: Human T1/2; for CLint scaled at 5 μM: human liver microsomes, in vivo CLint extrapolated. On the procedure:
(§1) Human or rat liver microsomes incubations were conducted in duplicate in polypropylene tubes. The typical incubation mixtures consisted of human or rat liver microsomes (0.5 mg protein/mL), compounds of interest (5 μM) and NADPH (1.0 mM) in a total volume of 200 μL potassium phosphate buffer (PBS, 100 mM, pH 7.4). Compounds were dissolved in DMSO and diluted with PBS such that the final concentration of DMSO was 0.05%. The enzymatic reactions were commenced with the addition of protein after a 3-min preincubation and incubated in a water bath open to the air at 37° C. Reactions were terminated at various time points (0, 5, 10, 15, 30, 60 min) by adding equal volume of ice-cold acetonitrile. The samples were stored at −80° C. until LC/MS/MS assays.
(§2) The concentrations of compounds in the incubation mixtures of human or rat liver microsomes were determined by a LC/MS/MS method. The ranges of the linearity in the concentration range were determined for each tested compounds.
(§3) A parallel incubation was performed using denatured microsomes as the negative control, and reactions were terminated at various time points (0, 15, 60 min) after incubation at 37° C.
(§4) Dextromethorphan (70 μM) was selected as the positive control, and reactions were terminated at various time points (0, 5, 10, 15, 30, 60 min) after incubation at 37° C. Both positive and negative control samples were included in each assay to ensure the integrity of the microsomal incubation system.
(§5) The concentrations of compounds in human or rat liver microsome incubations were plotted as a percentage of the relevant zero time point control for each reaction. The in vivo CLint were extrapolated (ref.: Naritomi, Y.; Terashita, S.; Kimura, S.; Suzuki, A.; Kagayama, A.; and Sugiyama, Y.; Prediction of human hepatic clearance from in vivo animal experiments and in vitro metabolic studies with liver microsomes from animals and humans. Drug Metab. Dispos., 2001, 29: 1316-1324).

Series [2] in a line: Compound stability in rat liver microsomes. The series is classed as in vitro ADME. The settings on record: pH 7.4; for half-life at 5 μM: rat liver microsomes 0.5 mg protein/mL, compound 5 μM, NADPH, 37° C., read-out: Rat T1/2; for CLint scaled at 5 μM: rat liver microsomes, in vivo CLint extrapolated. On the procedure: as §1, §2, §3, §4, §5
The target in the next series is T1, Aurora-A (h) (Homo sapiens, UniProt O14965).
T1 construct: purchased Millipore UK Ltd (contract assay service)
T1 sequence (O14965 1-403): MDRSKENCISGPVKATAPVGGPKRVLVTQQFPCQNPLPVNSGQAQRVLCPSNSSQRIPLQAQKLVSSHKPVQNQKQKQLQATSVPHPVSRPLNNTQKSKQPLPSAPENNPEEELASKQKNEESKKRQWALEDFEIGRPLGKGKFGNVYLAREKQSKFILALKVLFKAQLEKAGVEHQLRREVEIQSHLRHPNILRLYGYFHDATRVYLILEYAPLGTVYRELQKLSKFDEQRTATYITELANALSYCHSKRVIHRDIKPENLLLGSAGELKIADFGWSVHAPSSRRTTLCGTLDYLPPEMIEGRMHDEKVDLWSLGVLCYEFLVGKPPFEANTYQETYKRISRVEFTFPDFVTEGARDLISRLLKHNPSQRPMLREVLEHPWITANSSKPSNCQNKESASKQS
Put plainly: Aurora-A (h) kinase assay. The series is classed as biochemical. The protocol:
The above assay procedure can be used to determine the IC50 for inhibition and/or the inhibition constant, Ki. The IC50 is defined as the concentration of compound required to reduce the enzyme activity by 50% under the condition of the assay. The IC50 value is estimated by preparing a 10 point curve using a 1/2 log dilution series (for example, a typical curve may be prepared using the following compound concentrations: 3 μM, 1 μM, 0.3 μM, 0.1 μM, 0.03 μM, 0.01 μM, 0.003 μM, 0.001 μM, 0.0003 μM and 0 μM).
Aurora-A (h) is incubated with 8 mM MOPS pH 7.0, 0.2 mM EDTA, 200 μM LRRASLG (Kemptide), 10 mM MgAcetate and [γ-^33P-ATP] (specific activity approx. 500 cpm/pmol, concentration as required). The reaction is initiated by the addition of the MgATP mix. After incubation for 40 minutes at room temperature, the reaction is stopped by the addition of 3% phosphoric acid solution. 10 μL of the reaction is then spotted onto a P30 filtermat and washed three times for 5 minutes in 75 mM phosphoric acid and once in methanol prior to drying and scintillation counting.
The kinase assays described herein were performed at Millipore UK Ltd, Dundee Technology Park, Dundee DD2 1SW, UK.

Series [3] in a line: Pharmacokinetics after intravenous and oral administration in rats. The series is classed as in vivo. The following applies: for Clearance (CL) after iv dosing / AUC(0-t) / half-life / Vd: dose 1 mg/kg, iv dosing; for F: oral bioavailability; for AUC(0-t) / half-life / Vd: rat, plasma; for Vd: read-out: Vss. On the procedure:
The LC/MS/MS system used in the analysis consists of an Agilent 1200 Series vacuum degasser, binary pump, well-plate autosampler, thermostatted column compartment, the Agilent G6430 Triple Quadrupole Mass Spectrometer with an electrosprayionization (ESI) source. Quantitative analysis was carried out using MRM mode. The parameters for MRM transitions are in the Table A.
An Agilent XDB-C18, 2.1×30 mm, 3.5 μM column was used for the analysis. 5 μL of the samples were injected. Analysis condition: The mobile phase was 0.1% formic acid in water (A) and 0.1% formic acid in methanol (B). The flow rate was 0.4 mL/min. And the gradient of Mobile phase was in the Table B.
Alternatively, an Agilent 6330 series LC/MS/MS spectrometer equipped with G1312A binary pumps, a G1367A autosampler and a G1314C UV detector were used in the analysis. An ESI source was used on the LC/MS/MS spectrometer. The analysis was done in positive ion mode as appropriate and the MRM transition for each analyte was optimized using standard solution. A Capcell MP-C18 100×4.6 mm I.D., […] column (Phenomenex, Torrance, Calif., USA) was used during the analysis. The mobile phase was 5 mM ammonia acetate, 0.1% MeOH in water (A): 5 mM ammonia acetate, 0.1% MeOH in acetonitrile (B) (70/30, v/v). The flow rate was 0.6 mL/min. Column was maintained at ambient temperature. 20 μL of the samples were injected.
The compounds disclosed herein are assessed in pharmacokinetic studies in mice, rats, dogs or monkeys. The compounds are administered as a water solution, 2% HPMC+1% TWEEN®80 in water solution, 5% DMSO+5% solutol in saline, 4% MC suspension or capsule. For the intravenous administration, the animals are generally given at 0.5, 1 or 2 mg/kg dose. For the oral (p.o.) dosing, mice and rats are generally given 0.5, 1, 5 or 10 mg/kg dose, and dogs and monkeys are generally given 10 mg/kg dose. The blood samples (0.3 mL) are drawn at 0.25, 0.5, 1.0, 2.0, 3.0, 4.0, 6.0, 8.0, 12 and 24 h time points or 0.083, 0.25, 0.5, 1.0, 2.0, 4.0, 6.0, 8.0 and 24 h time points and centrifuged at 3,000 or 4000 rpm for 2 to 10 min. The plasma solutions are collected, and stored at −20° C. or −70° C. until analyzed by LC/MS/MS as described above.

A word on the CLint scaled: it is the rate of metabolic loss divided by the concentration. For orientation: IC50 means the concentration that inhibits the measured activity by half. A higher IC50 goes with weaker potency. As to `Cn1cc(Nc2ncc(Cl)c(N[C@@H]3COC4C3OC[C@@H]4Nc3ccc(C#N)nn3)n2)cn1` (stereo partly drawn) [Ex. 3, 6-(((3S,6R)-6-((5-chloro-2-((1-methyl-1H-pyrazol-4-yl)amino)pyrimidin-4-yl)amino)hexahydrofuro[3,2-b]furan-3-yl)amino)pyridazine-3-carbonitrile], the half-life at 5 μM came to 142 min in series [1] and 22 min in series [2]. Moreover, the intrinsic metabolic clearance (CLint scaled) at 5 μM in series [1] was 12.3 mL/min/kg; in series [2] it was 113 mL/min/kg. For the same compound, at Aurora-A (h), it took 45 nM to reach half-maximal inhibition (IC50).
What is called AUC(0-t) is exposure summed from dosing to a finite time, without extrapolation to infinity. Lower therefore signals low exposure. As for `Cn1cc(Nc2ncc(Cl)c(N[C@@H]3COC4C3OC[C@@H]4NS(=O)(=O)C3CC3)n2)cn1` (stereo partly drawn) [Ex. 4, N-((3S,6R)-6-((5-chloro-2-((1-methyl-1H-pyrazol-4-yl)amino)pyrimidin-4-yl)amino)hexahydrofuro[3,2-b]furan-3-yl)cyclopropanesulfonamide], in series [1], the half-life at 5 μM stood at 563 min and the CLint scaled at 5 μM was 3.09 mL/min/kg. For the same compound, in series [3], the “Clearance (CL) after iv dosing” value is on record as 1.42 L/h/kg, the F came out at 51.7%, the AUC(0-t) is 712 ng·h/mL and the half-life is 21 min. Moreover, the Vd in series [3] amounted to 0.69 L/kg. In series [2], the half-life at 5 μM came out at 103 min and the CLint scaled at 5 μM was 24 mL/min/kg. Moreover, 53 nM corresponded to half-maximal inhibition on Aurora-A (h) (IC50).
For `Cn1cc(Nc2ncc(Cl)c(N[C@H]3COC4C3OC[C@H]4NS(=O)(=O)CC(F)(F)F)n2)cn1` (stereo partly drawn) [Ex. 5, N-((3R,6S)-6-((5-chloro-2-((1-methyl-1H-pyrazol-4-yl)amino)pyrimidin-4-yl)amino)hexahydrofuro[3,2-b]furan-3-yl)-2,2,2-trifluoroethanesulfonamide], in series [1], the half-life at 5 μM came to 243 min and the CLint scaled at 5 μM was 7.16 mL/min/kg. Also, in series [3], the “Clearance (CL) after iv dosing” value turned out to be 2.33 L/h/kg, the F is reported as 44.0%, the AUC(0-t) was 420 ng·h/mL and the half-life is 108 min. The Vd in series [3] was 2.01 L/kg. Moreover, in series [2], the half-life at 5 μM turned out to be 82.7 min and the CLint scaled at 5 μM is 30 mL/min/kg. This compound also showed an IC50 at Aurora-A (h) of 1000 nM.
Turning to `Cn1cc(Nc2ncc(Cl)c(N[C@H]3COC4C3OC[C@H]4NS(=O)(=O)N3CCCC3)n2)cn1` (stereo partly drawn) [Ex. 6, N-((3R,6S)-6-((5-chloro-2-((1-methyl-1H-pyrazol-4-yl)amino)pyrimidin-4-yl)amino)hexahydrofuro[3,2-b]furan-3-yl)pyrrolidine-1-sulfonamide], in series [1], the half-life at 5 μM was 37.3 min and the CLint scaled at 5 μM was 46.5 mL/min/kg. Moreover, in series [3], the “Clearance (CL) after iv dosing” value turned out to be 3.23 L/h/kg, the F is listed as 44.3%, the AUC(0-t) stood at 309 ng·h/mL and the half-life was 34.8 min. Besides, in series [3], the Vd amounted to 1.54 L/kg. In addition, in series [2], the half-life at 5 μM was 37.7 min and the CLint scaled at 5 μM was 65.8 mL/min/kg. In addition, the IC50 on Aurora-A (h) is 984 nM.
For the compound `Cn1cc(Nc2ncc(Cl)c(N[C@@H]3COC4C3OC[C@@H]4NS(=O)(=O)CC3CCOC3)n2)cn1` (stereo partly drawn) [Ex. 16, N-((3S,6R)-6-((5-chloro-2-((1-methyl-1H-pyrazol-4-yl)amino)pyrimidin-4-yl)amino)hexahydrofuro[3,2-b]furan-3-yl)-1-(tetrahydrofuran-3-yl)methanesulfonamide], in series [1], the half-life at 5 μM was 39.1 min and the CLint scaled at 5 μM is 44.4 mL/min/kg. Besides, in series [2], the half-life at 5 μM came to 106 min and the CLint scaled at 5 μM is 23.4 mL/min/kg. This compound yielded an IC50 at Aurora-A (h) of 17 nM.
In the case of `Cn1cc(Nc2ncc(Cl)c(N[C@@H]3COC4C3OC[C@@H]4NS(=O)(=O)Cc3ccccc3)n2)cn1` (stereo partly drawn) [Ex. 19, N-((3S,6R)-6-((5-chloro-2-((1-methyl-1H-pyrazol-4-yl)amino)pyrimidin-4-yl)amino)hexahydrofuro[3,2-b]furan-3-yl)-1-phenylmethanesulfonamide], in series [3], the “Clearance (CL) after iv dosing” value stood at 2.69 L/h/kg, the F is 28.2%, the exposure AUC(0-t) came out at 374 ng·h/mL and the half-life was 52.8 min. For the same compound, the Vd in series [3] came to 2.37 L/kg. This compound also had an IC50 on Aurora-A (h) of 10 nM.
As for `Cn1cc(Nc2ncc(Cl)c(N[C@@H]3COC4C3OC[C@@H]4NS(=O)(=O)NC3CCOC3)n2)cn1` (stereo partly drawn) [Ex. 29, 5-chloro-N-(1-methyl-1H-pyrazol-4-yl)-4-(((3R,6S)-6-((N-(tetrahydrofuran-3-yl)sulfamoyl)amino)hexahydrofuro[3,2-b]furan-3-yl)amino)pyrimidin-2-amine], the IC50 on Aurora-A (h) was determined as 16 nM.
The same measure, in the same setting: then `CC(C)CS(=O)(=O)N[C@@H]1COC2C1OC[C@H]2Nc1nc(Nc2cnn(C)c2)ncc1Cl` (stereo partly drawn) [Ex. 32, N-((3R,6R)-6-((5-chloro-2-((1-methyl-1H-pyrazol-4-yl)amino)pyrimidin-4-yl)amino)hexahydrofuro[3,2-b]furan-3-yl)-2-methylpropane-1-sulfonamide], with 478 nM.
Still for that read-out and setting: then `Cn1cc(Nc2ncc(Cl)c(N[C@@H]3COC4C3OC[C@@H]4NS(=O)(=O)CC(F)F)n2)cn1` (stereo partly drawn) [Ex. 36, N-((3S,6R)-6-((5-chloro-2-((1-methyl-1H-pyrazol-4-yl)amino)pyrimidin-4-yl)amino)hexahydrofuro[3,2-b]furan-3-yl)-2,2-difluoroethanesulfonamide], with 51 nM.
